Measurements published in patent US4444754A, “Derivatives of clavulanic acid, a process for their preparation and their use” (Beecham Group Limited, priority 1978, dated 1984).
Converted amounts (≈) assume the structure as drawn. Read-outs that look alike come from different tables or passages of the source. Blank lines part the entries; values can stand above or below the compound they belong to.

Experiments:
[1] = system: Staphylococcus aureus Smith; test: in-vivo anti-bacterial activity in mice with intraperitoneal Staphylococcus aureus Smith infection; conditions: intraperitoneal S. aureus Smith; for ED50: Staphylococcus aureus, sc, sub-cutaneous dosing 1 and 5 hours post infection
Protocol: (§1) When tested in mice suffering from an intraperitoneal infection of Staphylococcus aureus Smith, the following results where obtained with sub-cutaneous dosing 1 and 5 hours post infection: […]

E. coli 0111 = test: MIC in DST agar containing 5% blood; type: cell-based; conditions: Escherichia coli
Source text: (§2) The following MIC values (μg/ml) for the compound of Example 2 were obtained in DST agar containing 5% blood: […]

E. coli ESS = test: MIC in DST agar containing 5% blood; type: cell-based; conditions: Escherichia coli
Source text: as §2

E. coli JT39 (R+) = test: MIC in DST agar containing 5% blood; type: cell-based; conditions: Escherichia coli
Source text: as §2

Kleb. aerogenes A = test: MIC in DST agar containing 5% blood; type: cell-based; conditions: Klebsiella aerogenes
Source text: as §2

Prot. mirabilis C977 = test: MIC in DST agar containing 5% blood; type: cell-based; conditions: Proteus mirabilis
Source text: as §2

Staph. aureus 1517 = test: MIC in DST agar containing 5% blood; type: cell-based; conditions: Staphylococcus aureus
Source text: as §2

Staph. aureus Oxford = test: MIC in DST agar containing 5% blood; type: cell-based; conditions: Staphylococcus aureus
Source text: as §2

Staph. aureus Russell = test: MIC in DST agar containing 5% blood; type: cell-based; conditions: Staphylococcus aureus
Source text: as §2

Strep. faecalis I = test: MIC in DST agar containing 5% blood; type: cell-based; conditions: Enterococcus faecalis
Source text: as §2

Strep. pneumoniae = test: MIC in DST agar containing 5% blood; type: cell-based; conditions: Streptococcus pneumoniae
Source text: as §2

Strep. pyogenes CN1O = test: MIC in DST agar containing 5% blood; type: cell-based; conditions: Streptococcus pyogenes
Source text: as §2

[2] = overt drug induced toxicity in infected mice at the therapeutic dose; type: in vivo; conditions: sub-cutaneous
Protocol: as §1

E. coli E96 (Rtem) = test: in-vivo test in mice infected intraperitoneally with E. coli E96 (Rtem), amoxycillin synergy; conditions: Escherichia coli, sc, read-out: CD50 of amoxycillin alone
Klebsiella aerogenes E70 = test: in vitro MIC of ampicillin with and without the compound (synergy); type: cell-based; conditions: without the compound of Example 2, read-out: in vitro MIC of ampicillin alone
[3] = read-out: CD50 (the source's name)

Compound: O=C(O)[C@H]1/C(=C/CO)O[C@@H]2CC(=O)N21 [Clavulanic acid sodium, reference compound]
- ED50 ([1]; range of results in various tests, read-out: CD50, range of results in various tests): 12 to 27 mg/kg
- ED50 [1, 3]: 13 mg/kg

Compound: O=C(O)[C@H]1/C(=C/CN2CCc3ccccc3C2)O[C@@H]2CC(=O)N21 [Example 2, 9-N-(1,2,3,4-Tetrahydroisoquinolyl)deoxyclavulanic acid]
- MIC (E. coli 0111): 80 µg/mL (≈ 255 µM)
- MIC (E. coli ESS): 10 µg/mL (≈ 31.8 µM)
- MIC (E. coli JT39 (R+)): 40 µg/mL (≈ 127 µM)
- MIC (Kleb. aerogenes A): 20 µg/mL (≈ 63.6 µM)
- MIC (Prot. mirabilis C977): > 80 µg/mL
- MIC (Staph. aureus 1517): 20 µg/mL (≈ 63.6 µM)
- MIC (Staph. aureus Oxford): ≤ 1.25 µg/mL
- MIC (Staph. aureus Russell): ≤ 1.25 µg/mL
- MIC (Strep. faecalis I): 80 µg/mL (≈ 255 µM)
- MIC (Strep. pneumoniae): ≤ 1.25 µg/mL
- MIC (Strep. pyogenes CN1O): ≤ 1.25 µg/mL
- ED50 [1, 3]: 3.5 mg/kg
- anti-bacterial activity in-vivo ([1]; result in words): good anti-bacterial activity in-vivo
- overt drug induced toxicity [2]: No overt drug induced toxicity was observed

Compound: CC1(C)S[C@@H]2[C@H](NC(=O)[C@H](N)c3ccc(O)cc3)C(=O)N2[C@H]1C(=O)O [amoxycillin]
- ED50 (E. coli E96 (Rtem)): > 1000 mg/kg

- MIC (Klebsiella aerogenes E70): 125 µg/mL
Compound: CC1(C)S[C@@H]2[C@H](NC(=O)[C@H](N)c3ccccc3)C(=O)N2[C@H]1C(=O)O [ampicillin]
